# Experimental data as given in ChEMBL document CHEMBL1201862, “PubChem BioAssay data set” (2004).
#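 Step 1: Grow cells in 96-well plates. Step 2: Expose to compound for 48 hours at 5 concentrations. Step 3: Interpolate endpoints linearly; if unreached, use highest concentration. Abbreviation: GI50, concentration required for 50% inhibition of growth.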 Active and inactive are the calls of the source. Rule as the data show it: active = GI50 up to about 1.1 µM and inactive = higher.
# Columns and labels:
# Experiment in all cases: growth of human tumour cells (NCI), 48 h
# UACC-62 = test system: UACC-62
# SK-OV-3 = test system: SK-OV-3
# TK-10 = test system: TK-10
# OVCAR-3 = test system: OVCAR-3
# SF-539 = test system: SF-539
# HCT-116 = test system: HCT-116
# PC-3 = test system: PC-3
# 786-0 = test system: 786-0
# A498 = test system: A498
# MOLT-4 = test system: MOLT-4
# SNB-19 = test system: SNB-19
# A549 = test system: A549
# SNB-75 = test system: SNB-75
# SW-620 = test system: SW-620
# DU-145 = test system: DU-145
# SF-295 = test system: SF-295
# KM12 = test system: KM12
# CCRF-CEM = test system: CCRF-CEM
# NCI-H226 = test system: NCI-H226
# MDA-N = test system: MDA-N
Compound,GI50 (UACC-62),GI50 (SK-OV-3),GI50 (TK-10),GI50 (OVCAR-3),GI50 (SF-539),GI50 (HCT-116),GI50 (PC-3),GI50 (786-0),GI50 (A498),GI50 (MOLT-4),GI50 (SNB-19),GI50 (A549),GI50 (SNB-75),GI50 (SW-620),GI50 (DU-145),GI50 (SF-295),GI50 (KM12),GI50 (CCRF-CEM),GI50 (NCI-H226),GI50 (MDA-N)
O=[N+]([O-])/C=C/c1cc2ccc3ccccc3c2[nH]1,1.68 µM (inactive),4.07 µM (inactive),1.58 µM (inactive),1.55 µM (inactive),1.86 µM (inactive),1.52 µM (inactive),1.46 µM (inactive),1.36 µM (inactive),1.23 µM (inactive),0.776 µM (active),2.66 µM (inactive),2.16 µM (inactive),1.79 µM (inactive),1.49 µM (inactive),1.9 µM (inactive),2.4 µM (inactive),1.83 µM (inactive),0.299 µM (active),1.06 µM (active),1.67 µM (inactive)
C/C(=N\Nc1nc2cc(C)ccc2s1)c1ccccn1,0.596 µM (active),0.49 µM (active),2.22 µM (inactive),0.441 µM (active),1.39 µM (inactive),0.213 µM (active),0.593 µM (active),0.519 µM (active),1.09 µM (active),< 0.0246 µM (active),1.38 µM (inactive),0.798 µM (active),2.23 µM (inactive),0.209 µM (active),0.652 µM (active),1.15 µM (inactive),0.794 µM (active),0.149 µM (active),0.348 µM (active),1.68 µM (inactive)
COC(=O)CCCC(=O)/C(=N\Nc1ccc(Cl)cc1)Nc1c(Cl)cccc1Cl,60 µM (inactive),> 100 µM (inactive),> 74.1 µM (inactive),55.5 µM (inactive),> 100 µM (inactive),38.9 µM (inactive),24 µM (inactive),86.1 µM (inactive),29.5 µM (inactive),26 µM (inactive),35.7 µM (inactive),24.3 µM (inactive),27.5 µM (inactive),> 100 µM (inactive),52.4 µM (inactive),35.2 µM (inactive),32 µM (inactive),26.2 µM (inactive),45.2 µM (inactive),> 84.5 µM (inactive)
CCOC(=O)C1(Cc2ccc(C)cc2)Cc2ccc(C)cc2C1=O (stereo not drawn),11.8 µM (inactive),24.4 µM (inactive),23.5 µM (inactive),18.5 µM (inactive),19.8 µM (inactive),6.73 µM (inactive),26 µM (inactive),31.1 µM (inactive),23.5 µM (inactive),4.23 µM (inactive),36.6 µM (inactive),20.9 µM (inactive),24.3 µM (inactive),4.71 µM (inactive),41.4 µM (inactive),15.4 µM (inactive),4.57 µM (inactive),8.05 µM (inactive),35.2 µM (inactive),2.38 µM (inactive)
COc1ccc2c3c(ccc2c1)NC(C(=O)O)CC3 (stereo not drawn),40.5 µM (inactive),> 100 µM (inactive),52.1 µM (inactive),35.6 µM (inactive),80.4 µM (inactive),80.2 µM (inactive),74.6 µM (inactive),97.7 µM (inactive),27.7 µM (inactive),19.5 µM (inactive),56.8 µM (inactive),62.1 µM (inactive),57.7 µM (inactive),35.2 µM (inactive),> 100 µM (inactive),58.5 µM (inactive),67.3 µM (inactive),–,> 100 µM (inactive),57.8 µM (inactive)
N#Cc1nc(-c2ccccc2C(=O)O)oc1N,> 100 µM (inactive),> 100 µM (inactive),> 100 µM (inactive),> 100 µM (inactive),> 100 µM (inactive),> 100 µM (inactive),> 100 µM (inactive),> 100 µM (inactive),> 100 µM (inactive),> 100 µM (inactive),> 100 µM (inactive),> 100 µM (inactive),> 100 µM (inactive),> 100 µM (inactive),> 100 µM (inactive),> 100 µM (inactive),> 100 µM (inactive),> 100 µM (inactive),> 100 µM (inactive),> 100 µM (inactive)
Cc1nc(N)nc(N)c1N1CCN(Cc2ccccc2)CC1,30.5 µM (inactive),> 55.1 µM (inactive),66.1 µM (inactive),47.8 µM (inactive),27.2 µM (inactive),4.71 µM (inactive),7.48 µM (inactive),4.73 µM (inactive),42.5 µM (inactive),29.7 µM (inactive),55.5 µM (inactive),3.56 µM (inactive),> 52.5 µM (inactive),38.9 µM (inactive),37.2 µM (inactive),7.06 µM (inactive),27 µM (inactive),16.5 µM (inactive),12.1 µM (inactive),21.9 µM (inactive)
CN(C)c1ccc(C=C2C(=O)NC(=S)NC2=O)c2ccccc12,> 100 µM (inactive),> 100 µM (inactive),> 100 µM (inactive),50.9 µM (inactive),36 µM (inactive),> 100 µM (inactive),> 100 µM (inactive),39.8 µM (inactive),53.7 µM (inactive),29.6 µM (inactive),61.2 µM (inactive),> 100 µM (inactive),30.1 µM (inactive),46.6 µM (inactive),> 100 µM (inactive),> 100 µM (inactive),> 100 µM (inactive),38.6 µM (inactive),> 100 µM (inactive),42.7 µM (inactive)
CC(=O)N(C(C)=O)c1cc2c3c(c1)CCCN3CCC2,> 10 µM (inactive),> 10 µM (inactive),> 10 µM (inactive),> 10 µM (inactive),> 10 µM (inactive),> 10 µM (inactive),> 10 µM (inactive),> 10 µM (inactive),> 10 µM (inactive),> 10 µM (inactive),> 10 µM (inactive),> 10 µM (inactive),> 10 µM (inactive),> 10 µM (inactive),> 10 µM (inactive),> 10 µM (inactive),> 10 µM (inactive),> 10 µM (inactive),> 10 µM (inactive),> 10 µM (inactive)
O=C1c2c(O)cccc2C(C(=O)CCCCC(=O)C2c3cccc(O)c3C(=O)c3c(O)cccc32)c2cccc(O)c21,0.724 µM (active),0.562 µM (active),1.55 µM (inactive),0.547 µM (active),0.399 µM (active),0.67 µM (active),0.107 µM (active),2.24 µM (inactive),1.56 µM (inactive),0.979 µM (active),0.288 µM (active),0.483 µM (active),0.948 µM (active),0.925 µM (active),0.671 µM (active),0.469 µM (active),0.607 µM (active),0.652 µM (active),0.918 µM (active),0.879 µM (active)
Cc1c(-c2nc(N)c(C#N)c(N)c2C#N)c(=O)oc2ccccc12,> 100 µM (inactive),> 100 µM (inactive),> 100 µM (inactive),> 100 µM (inactive),> 100 µM (inactive),78.2 µM (inactive),34.5 µM (inactive),73.8 µM (inactive),> 100 µM (inactive),–,> 100 µM (inactive),45.7 µM (inactive),> 100 µM (inactive),68.5 µM (inactive),> 100 µM (inactive),70 µM (inactive),68.4 µM (inactive),69 µM (inactive),> 100 µM (inactive),> 100 µM (inactive)
COc1ccc(/C=C/C(=O)N[C@@H]2C(=O)N3[C@@H]2SC(C)(C)[C@@H]3C(=O)O)cc1,> 100 µM (inactive),> 100 µM (inactive),> 100 µM (inactive),> 100 µM (inactive),> 100 µM (inactive),> 100 µM (inactive),> 100 µM (inactive),> 100 µM (inactive),> 100 µM (inactive),> 100 µM (inactive),> 100 µM (inactive),> 100 µM (inactive),> 100 µM (inactive),> 100 µM (inactive),> 100 µM (inactive),> 100 µM (inactive),> 100 µM (inactive),> 100 µM (inactive),> 100 µM (inactive),> 100 µM (inactive)
OC1C2CCCCN2C[C@@H](O)[C@H]1O (stereo partly drawn),> 100 µM (inactive),> 100 µM (inactive),> 100 µM (inactive),> 100 µM (inactive),> 100 µM (inactive),> 100 µM (inactive),> 100 µM (inactive),> 100 µM (inactive),> 100 µM (inactive),> 100 µM (inactive),> 100 µM (inactive),> 100 µM (inactive),> 100 µM (inactive),> 100 µM (inactive),> 100 µM (inactive),> 100 µM (inactive),> 100 µM (inactive),> 100 µM (inactive),> 100 µM (inactive),> 100 µM (inactive)
Oc1ccc(CNCc2ccccc2)c2cccnc12,0.5 µM (active),0.542 µM (active),0.282 µM (active),0.217 µM (active),0.34 µM (active),0.0594 µM (active),0.336 µM (active),0.383 µM (active),0.354 µM (active),0.215 µM (active),0.211 µM (active),0.0875 µM (active),0.0291 µM (active),0.356 µM (active),0.0452 µM (active),0.144 µM (active),0.448 µM (active),0.0436 µM (active),5 µM (inactive),0.0762 µM (active)
